These are literature values, as cited in patent US6753016B2, “Preservation of wood products” (Rohm and Haas Company, priority 2001, dated 2004).

For the data set the following is noted: aqueous treatment of wood surfaces; compared to conventional chromium(VI) treatment.

On to `[Cl][Fe]([Cl])[Cl]` [ferric chloride], for which the “protective effect on treated wood in weathering” value was “does not have a protective effect”.
